Results: patent US20040265847A1, “Method for treating Alzheimer's disease” (priority 1991, published 2004)

Columns and labels:
[1] = biological target: T1, partially purified human brain APP (Homo sapiens, UniProt P05067); experiment: partially purified brain APP binding to heparin-Sepharose, NaCl gradient elution
T1 construct: from tissue; host or cells: human brain membrane extract
Procedure: APP binding to heparin-Sepharose was also studied using partially purified APP preparations derived from human brain membranes (according to the method of Moir et al, 1992) or from human serum. Washed brain membrane extract or human serum was adjusted to a NaCl concentration of 350 mM and applied to a Q-Sepharose column (5 cm×5 cm), washed with 350 mM NaCl, 50 mM Tris-Hcl, pH 7.4 (250 ml [×2 for brain membrane extract]) and eluted with 1 M NaCl 50 mM Tris-HCl, pH 7.4 (200 ml at 5 ml/min). This procedure causes an 80-fold enrichment of APP in the peak protein fractions, which are then pooled (Moir et al, 1992). The eluate (20 ml) was desalted into 25 mM Tris, pH 7.4 (30 ml) using a G25 Sephadex column (2.6 cm×40 cm). 15 ml of the product was adjusted to 50 μM Zn^2+ with 2 mM ZnCl2, 50 mM Tris-Hcl, pH 7.4 and the other 15 ml was adjusted to the same volume with 50 mM Tris-HCl, pH 7.4. 10 ml of the deslated Q-Sepharose eluate, containing 6.7 mg protein, was applied to heparin-Sepharose (1.6 cm×5 cm) at 0.35 ml/min, washed with 100 ml of loading buffer, and eluted by a 0 to 1500 mM NaCl gradient (±50 μM Zn^2+) in 52.5 ml at a flow rate of 0.35 ml/min. Fractions (1 ml) representing 20 mM NaCl increments were collected and 30 μl samples of each fraction were assayed for APP by Western blot with mAb 22C11 according to the method in Bush et al. (1990), modified by using PVDF membranes and by reducing the blocking time to 1 hour. The immunoreactive staining of the 130 kDa APP species seen on the blots was quantified by computer-assisted image capture reflectance densitometry (Bush et al., 1992). The 130 kDa reflectance signals on the blots were expressed as the ratio of the signal generated in one sample lane related to the 130 kDa APP reflectance reading of a sample of starting material present on every individual filter as an internal standard.

[2] = test system: human brain 130/110 kDa APP; experiment: ^65Zn binding to human brain 130/110 kDa APP (time course, competition, Scatchard)
Excerpt: FIG. 4 is a graphical representation showing a time course analysis of ^65Zn binding to human brain 130/110 kDa APP. Amyloid protein precursor (APP) was purified according to the method in Moir et al. (1992). The preparation of purified 130 and 110 kDa APP was derived from human brain membrane extracts and contained the full-length precursor with carboxyl terminus intact but lacked the 17 residue signal peptide. The 130 and 110 kDa proteins were apparent in equal ratios on silver staining following polyacrylamide gel electrophoresis and were the only bands visible. The identity of these two proteins was confirmed by Western blots with monoclonal antibody 22C11 (which recognises an amino terminal epitope on APP), and by amino terminal sequencing. The protein concentration of the APP preparation was determined by amino acid analysis. Aliquots of APP (90 ng, =1.1 pmole, assuming the average amino acid formula weight of APP is =80 kDa) were incubated at 20° C. for the times indicated. Incubations (50 μl) were performed in 150 mM NaCl, 50 mM Tris-Hcl, pH 7.4 in the presence of 10^6 cpm of ^65Zn (175 nM). The incubation solution was then applied to a 1.1 ml bed volume Sephadex G25 (Pharmacia, Uppsala, Sweden) column pre-equilibrated with 150 mM NaCl, 50 mM Tris-HCl, pH 7.4 and allowed to settle before being desalted with 645 μl of the Equilibration buffer. […] The desalted protein was collected directly into counting tubes containing 10 ml aqueous counting scintillant. Less than two minutes was required to complete the desalting. The amount of ^65Zn bound to desalted APP was determined by counting the collected sample in a beta-counter set to the broadest channel. Counting was determined to be 51% efficient. The values shown are means±SD of n≧3 readings.
FIG. 5 is a graphical representation showing a competition analysis of ^65Zn binding to human brain 130/110 kDa APP. Aliquots of APP were incubated for 30 minutes with ^65Zn as in FIG. 4. The binding of the labelled Zn^2+ to APP was subjected to competition with unlabelled Zn^2+ in the form of the chloride salt. Data shown indicate the competition curves generated at pH 6.4 and 7.4. The binding of Zn^2+ to APP deteriorated at the lower pH (=45% of Bmax, pH 7.4). The values are means±SEM of n≧3 readings. The curves illustrated are typical of three experiments.
FIG. 6 is a graphical representation depicting a Scatchard analysis of ^65Zn binding to human brain 130/110 kDa APP.
Binding analysis was performed as follows: Aliquots of APP (90 ng, =1.1 pmole, assuming the average amino acid formula mass of APP is =80 kDa) were incubated at 20° C. Incubations (50 μl) were performed in 150 mM NaCl, 50 mM Tris-HCl, pH 7.4 in the presence of 10^6 CPM of ^65Zn (175 nM). The incubation solution was then applied to a 1.1 ml bed volume Sephadex G25 (Pharmacia, Uppsala, Sweden) column pre-equilibrated with 150 mM NaCl, 50 mM Tris-HCl, pH 7.4 and allowed to settle before being desalted with 645 μl of the equilibration buffer. […] The deslated protein was collected directly into counting tubes containing 10 ml aqueous counting scintillant (ACSII, Amersham). Less than two minutes was required to complete the desalting. The amount of ^65Zn bound to desalted APP was determined by counting the collected sample in a beta-counter set to the broadest channel. Counting was determined to be 51% efficient. The binding of the labelled Zn^2+ to APP was subjected to competition with unlabelled Zn^2+ and other metal chloride salts.

T1 sequence (P05067 18-770): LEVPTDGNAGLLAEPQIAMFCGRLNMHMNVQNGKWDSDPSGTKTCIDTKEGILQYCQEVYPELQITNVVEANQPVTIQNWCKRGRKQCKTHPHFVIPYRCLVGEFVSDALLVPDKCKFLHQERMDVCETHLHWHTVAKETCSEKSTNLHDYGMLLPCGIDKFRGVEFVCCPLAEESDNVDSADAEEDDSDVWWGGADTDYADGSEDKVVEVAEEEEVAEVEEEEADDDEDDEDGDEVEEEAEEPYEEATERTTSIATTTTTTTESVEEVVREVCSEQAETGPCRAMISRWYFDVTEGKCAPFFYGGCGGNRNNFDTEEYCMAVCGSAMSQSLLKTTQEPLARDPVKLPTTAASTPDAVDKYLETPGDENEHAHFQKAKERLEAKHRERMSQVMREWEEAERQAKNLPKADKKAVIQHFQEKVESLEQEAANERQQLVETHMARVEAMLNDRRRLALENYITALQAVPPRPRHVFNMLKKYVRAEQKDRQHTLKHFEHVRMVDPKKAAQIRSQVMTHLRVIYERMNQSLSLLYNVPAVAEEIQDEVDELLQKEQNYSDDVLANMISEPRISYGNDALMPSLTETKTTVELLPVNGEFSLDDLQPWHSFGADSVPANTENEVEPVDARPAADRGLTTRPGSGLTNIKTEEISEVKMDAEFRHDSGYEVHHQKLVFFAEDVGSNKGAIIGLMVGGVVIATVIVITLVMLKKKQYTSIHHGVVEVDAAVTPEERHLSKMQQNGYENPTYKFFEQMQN

[Cl-].[Cl-].[Zn+2] [Zn^2+, ZnCl2]
increase in amount of APP recovered in all fractions ([1]; 50 μM Zn^2+): 48%
amount of APP recovered in all fractions ([1]; 50 μM Zn^2+ (1110 without)): 1644 reflectance units
reduction in amount of eluted protein ([1]; 50 μM Zn^2+, protein assay): 13%
Zn bound to APP, % of Bmax ([2]; at 1 minute): 30%
Zn bound to APP, % of Bmax ([2]; at 5 minutes): 30%
binding of Zn^2+ to APP at the lower pH, % of Bmax at pH 7.4 ([2]; pH 6.4): 45%
^65Zn label competed off APP (of Bmax) ([2]; unlabelled metal ion at 20 μM): > 97%
